Test results taken from PubChem BioAssay AID1963985 (Molecular Pharmacology Branch, DTP, NCI, 2024).

Test system: 252836-082-R-J2-PDC tumor spheroids, viability
Assay: Anticancer human tumor 252836-082-R-J2-PDC patient-derived head and neck squamous cell carcinoma cell line growth inhibition [PI3K]
Details: spheroids with HUVEC and MSC; for viability, T/C: stronger effect = lower value; for IC50: curve of compound
Source text: Combinatorial screen of targeted agents with the PI3K inhibitors inavolisib, alpelisib, duvelisib, and copanlisib in multi-cell type tumor spheroids
A high-throughput screen of multi-cell type tumor spheroids was designed to identify active combinations of targeted small molecules and PI3K pathway inhibitors. Complex spheroids include a stromal component modeled by human endothelial cells (HUVEC) and fibroblasts modeled by human mesenchymal stem cells (MSCs). The concentration ranges selected for each drug and investigational agent were based upon clinically achievable concentrations if the clinical Cmax of the agent was known.
Compounds. The drugs and investigational agents: inavolisib (NSC800729), alpelisib (NSC765974), duvelisib (NSC772469), copanlisib (NSC816437), ipatasertib (NSC767898), afuresertib (NSC778305), talazoparib (NSC767125), sapanisertib (NSC764658), selumetinib (NSC741078), tovorafenib (DAY101, NSC766906), vemurafenib (NSC761431), ravoxertinib (NSC781343), sotorasib (NSC818433), MRTX1133 (NSC 836407), abemaciclib (NSC 768073), palbociclib (NSC758247), venetoclax (NSC 766270), SY5609 (NSC837396), enzalutamide (NSC755605), and darolutamide (NSC825331), were obtained from the National Cancer Institute (NCI) Developmental Therapeutics Program Chemical Repository. The FDA-approved anticancer drug set is available from the NCI Developmental Therapeutics Program. […] The stock solutions were prepared in dimethyl sulfoxide (DMSO, Sigma-Aldrich, St. Louis, MO, cat. D2650) at 800-fold the tested concentration and stored at -70 degrees C prior to their use. All drugs and investigational agents were tested over a range starting from a high concentration at or near the clinical Cmax and decreasing in half-log increments. If the clinical Cmax for an agent had not been determined, the highest concentration tested was 10 microM.
Cell Culture. All cells were maintained in an incubator at 37 degrees C and 5% CO2 with 95% humidity. The PDC lines were cultured according to standard operating procedures established by the NCI PDMR (https://pdmr.cancer.gov/sops/default.htm). All PDCs were thawed and cultured in Matrigel-coated flasks prepared with a working solution of 1X Ham's F-12 nutrient mix, without supplementation (Invitrogen, Waltham, MA, cat. 11765054), 100 U/mL penicillin-streptomycin (Invitrogen, cat. 15140122), and 2.5% Matrigel (Corning Inc., Corning, NY, cat. 354248) for the first three passages. The 354836-022-R-J1-PDC, 475296-252-R-J1-PDC, and 997726-040-R-J2-PDC lines were cultured in 6A media, which includes advanced DMEM/F-12 (Thermo Fisher Scientific, cat. 12634028), 10 mM HEPES (Thermo Fisher Scientific, cat. 15630080), 1X GlutaMAX supplement (Thermo Fisher Scientific, cat. 35050061), 0.1 mg/mL primocin (InvivoGen, San Diego, CA, cat. ant-pm-2), 10% defined fetal bovine serum, heat inactivated (HyClone Laboratories Inc., Logan, UT, cat. SH30070.03HI), 50% L-WRN conditioned media (ATCC, cat. CRL-3276), 1.25 mM N-Acetyl-L-cysteine (Sigma-Aldrich, cat. A9165), 10 mM nicotinamide (Sigma-Aldrich, cat. N0636), 1X B-27 supplement (Thermo Fisher Scientific, cat. 17504044), 1X N-2 supplement (Thermo Fisher Scientific, cat. 17502048), and 10 microM Y-27632 dihydrochloride (Tocris Bioscience, Bristol, United Kingdom, cat. 1254). The 624824-186-R-J2-PDC line was cultured in 6C/Colon 1B media, which includes all 6A media components plus 50 ng/mL human EGF recombinant protein (Thermo Fisher Scientific, cat. PHG0311). […]
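Note: spheroids exposed to agents for seven days before readout.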
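Throughout, for viability, T/C: percent of vehicle DMSO control viability so 100% = untreated growth.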

SMILES | IC50 | viability, T/C (compound 0.0316 µM) | viability, T/C (compound 1 µM) | viability, T/C (compound 3.16 µM) | viability, T/C (compound 10 µM) | viability, T/C (compound 0.1 µM) | viability, T/C (compound 0.316 µM)
CC(Cn1ccc(-c2ccc(C#N)c(Cl)c2)n1)NC(=O)c1cc(C(C)O)[nH]n1 (centres undefined) | > 10 µM | 93.6% [middle of 4 runs] | 97.2% [middle of 4 runs] | 92.5% [middle of 4 runs] | 91.9% [middle of 4 runs] | 88.4% [middle of 4 runs] | 98.8% [middle of 4 runs]
CC1(C)CCC(CN2CCN(c3ccc(C(=O)NS(=O)(=O)c4ccc(NCC5CCOCC5)c([N+](=O)[O-])c4)c(Oc4cnc5[nH]ccc5c4)c3)CC2)=C(c2ccc(Cl)cc2)C1 |  | 97.7% [middle of 4 runs] | 96% [middle of 4 runs] |  |  | 99.2% [middle of 4 runs] | 100% [middle of 4 runs]
CC1(C)CCC(Nc2ncc(C(F)(F)F)c(-c3c[nH]c4c(P(C)(C)=O)c(C#N)ccc34)n2)CN1 (centres undefined) | < 0.0316 µM | 30.1% [middle of 4 runs] | 33% [middle of 4 runs] | 32.1% [middle of 4 runs] | 7.06% [middle of 4 runs] | 29.5% [middle of 4 runs] | 35.8% [middle of 4 runs]
C[C@@H](NC(=O)c1ncnc(N)c1Cl)c1ncc(C(=O)Nc2cc(C(F)(F)F)c(Cl)cn2)s1 | > 10 µM | 98.2% [middle of 4 runs] | 109% [middle of 4 runs] | 96.5% [middle of 4 runs] | 87.4% [middle of 4 runs] | 93% [middle of 4 runs] | 104% [middle of 4 runs]
Cn1ncc(Cl)c1-c1cc(C(=O)NC(CN)Cc2cccc(F)c2)sc1Cl (centres undefined) | 684 nM [middle of 4 runs] | 84.6% [middle of 4 runs] | 42.4% [middle of 4 runs] | 30.8% [middle of 4 runs] | 12.7% [middle of 4 runs] | 85% [middle of 4 runs] | 66.9% [middle of 4 runs]
Cn1nccc1Nc1nccc(-c2ccn(C(CO)c3ccc(Cl)c(F)c3)c(=O)c2)n1 (centres undefined) | > 10 µM | 95.5% [middle of 4 runs] | 96.5% [middle of 4 runs] | 85.2% [middle of 4 runs] | 74.2% [middle of 4 runs] | 100% [middle of 4 runs] | 96.9% [middle of 4 runs]

Continued, in another order:

IC50 | SMILES | viability, T/C (compound 0.0316 µM) | viability, T/C (compound 1 µM) | viability, T/C (compound 3.16 µM) | viability, T/C (compound 10 µM) | viability, T/C (compound 0.1 µM) | viability, T/C (compound 0.316 µM)
> 10 µM | C#Cc1c(F)ccc2cc(O)cc(-c3ncc4c(N5CC6CCC(C5)N6)nc(OCC56CCCN5CC(F)C6)nc4c3F)c12 (centres undefined) | 89.5% [middle of 4 runs] | 87.9% [middle of 4 runs] | 83.4% [middle of 4 runs] | 67.8% [middle of 4 runs] |  | 
> 10 µM | C=CC(=O)N1CCN(c2nc(=O)n(-c3c(C)ccnc3C(C)C)c3nc(-c4c(O)cccc4F)c(F)cc23)C(C)C1 (centres undefined) | 98% [middle of 4 runs] |  |  | 99.2% [middle of 4 runs] | 95.6% [middle of 4 runs] | 
5.49 µM [middle of 4 runs] | CCCS(=O)(=O)Nc1ccc(F)c(C(=O)c2c[nH]c3ncc(-c4ccc(Cl)cc4)cc23)c1F | 99% [middle of 4 runs] | 96.2% [middle of 4 runs] | 90% [middle of 4 runs] | 8.42% [middle of 4 runs] |  | 
> 10 µM | CNC(=O)c1ccc(N2C(=S)N(c3ccc(C#N)c(C(F)(F)F)c3)C(=O)C2(C)C)cc1F |  | 96.4% [middle of 4 runs] | 94.9% [middle of 4 runs] | 94.5% [middle of 4 runs] | 92.5% [middle of 4 runs] | 105% [middle of 4 runs]
